# Results published in patent US20080051464A1, “Protein phosphatase inhibitors” (The Cleveland Clinic Foundation, priority 2006, published 2008).
# What was measured:
# [1] = tested on: Jurkat cells; assay: Jurkat cell apoptosis (Annexin V / 7-AAD, FACS); assay type: cell-based, human; conditions: 16 hrs (FIG. 23)
# Description: FIG. 23 illustrates jurkat cells were treated with L6 and analogs in culture for 16 hrs. Cells were then stained for apoptotic marker Annexin V and cell death marker 7-AAD prior to FACS analysis.
# [2] = tested on: MKPs; assay: induction of MKPs substrates in Jurkat cells (Western blotting); assay type: cell-based, human; conditions: for differential effects on MKP substrates (pERK1/2, p38, pJNK): L6 at 1-100 ng/ml
# Description: FIG. 22 illustrates selective induction of MKPs substrates by L6 and analogs in Jurkat human leukemic cells. Jurkat cells were treated with the compounds for 30 min in culture prior to quantification of MKPs substrates by SDS-PAGE/Western blotting.
# [3] = tested on: HT-29 human colon cancer cells; assay: cytotoxicity of 5FU against HT-29 cells with L6 or analogs (MTT assay); assay type: cell-based; conditions: 5FU 2 μm, 3 days, then 4 days culture (FIG. 24)
# Description: FIG. 24 illustrates HT-29 cells were treated with L6 or the analogs in the absence or presence of 5FU (2 μm) for 3 days. After washing, the cells were cultured for 4 days prior to quantification of viable cells by MTT assays.
# [4] = tested on: pERK1/2 in B16 cells; assay: pERK1/2 in B16 cells (Western blotting); assay type: cell-based, mouse; conditions: 10 min (FIG. 20C)
# Description: FIG. 20 illustrates L6 induces pERK1/2 in Jurkat and B16 cells. A and B, Western blotting membranes with samples and probed for the SHP-1 substrates were stripped and then re-probed with an antibody for pERK1/2. C, B16 cells were treated with L6 or L6a6 at […] for 10 min and subjected to SDS-PAGE/Western blotting to quantify pERK1/2.
# [5] = tested on: prostate cancer DU145; assay: DU145 cell growth (MTT assay); assay type: cell-based; conditions: highest testing dose (5 μg/ml) (FIG. 19E)
# Description: (§1) L5, L6 and L6 analogs (Chembridge), mouse IFNγ ELISPOT Kit (R & D System) and antibody against pLck-pY394 or pERK1/2 (Cell Signaling) were purchased from commercial sources. Human Jurkat T cell line and murine B16 melanoma cell line (ATCC) and other cancer cell lines were maintained in […] culture medium supplemented with 10% fetal calf serum (FCS). The effects of chemical compounds on cancer cell growth in culture were quantified by MTT assays following our established procedures.
# [6] = tested on: B16 melanoma cells; assay: B16 melanoma cell growth in culture (MTT assay); assay type: cell-based, mouse
# Description: as §1
# [7] = tested on: melanoma MeI-7, colon cancer MC-26, breast cancer 4T1 and prostate cancer DU145; assay: cyto-toxicity against four other cancer cell lines (MTT assay); assay type: cell-based; conditions: FIGS. 19B, C and D
# Description: as §1
SMILES,Jurkat cell apoptosis [1],MKP predominantly targeted (as indicated by effects on the substrates) [2],dose inducing pJNK and p-p38 ([2]; 30 min (FIG. 22)) [ng/ml],"differential effects on MKP substrates (pERK1/2, p38, pJNK) ([2]; 30 min (FIG. 22))",augmentation of 5FU cytotoxicity against HT-29 cells [3],induction of pERK1/2 in B16 cells [4],DU145 cell growth [5],dose that completely killed B16 cells (killing dose) ([6]; FIG. 19A) [µg/mL],toxicity toward B16 cells in culture ([6]; comparable conditions (FIG. 19A)),killing dose relative to L6 and L6a6 [7]
Cc1cc(-n2sc(Cl)c(C)c2=O)ccc1Cl [L6a6],apoptosis were induced,mainly acted against MKP1,≥ 1,induced pERK1/2 only at the high doses,augmented,pERK1/2-inducing activity,–,–,–,–
Cc1ccc(-n2sc3ccccc3c2=O)cc1 [L6a2],apoptosis were induced,targeted a p38-specific MKP,–,selectively induced p38 phosphorylation,–,–,failed to affect DU145 cell growth,2.5,little or limited toxicity,5-10 folds higher
